Experimental data: the supplement of paper PMC11061612

Assays:
[1] = test system: SBC-3 (Small Cell Lung Carcinoma); experiment: combination Emax (second highest fraction inhibited in the dose matrix, 72 h); higher = more inhibition; extreme values may be limits of the assay
Method in brief: (§1)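 Cell lines in DMEM/F12 or RPMI with 10% FBS were plated in 1536-well plates, held 24 hours at 37°C, 5% CO2, then given two-drug dose matrices for 72 hours (DMSO typically 0.2%). Viability was read by CellTiter-Glo 2.0 luminescence and scaled as inhibition from 0 (vehicle wells) to 1 (blank wells). Combination Emax is the second-highest inhibition in the matrix; Bliss excess is observed combination effect minus expected EA + EB − EA·EB, EA and EB being single-agent effects.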

SK-MEL-24 (Melanoma) = experiment: as above
Method in brief: as §1

[2] = test system: CAL-85-1 (Breast Carcinoma); experiment: as above
Method in brief: as §1

[3] = test system: GRANTA-519 (B-Cell Non-Hodgkin's Lymphoma); experiment: as above
Method in brief: as §1

[4] = test system: NCI-H2023 (Non-Small Cell Lung Carcinoma); experiment: as above
Method in brief: as §1

[5] = test system: NCI-H1944 (Lung Adenocarcinoma); experiment: as above
Method in brief: as §1

[6] = test system: SUP-HD1 (Hodgkin's Lymphoma); experiment: as above
Method in brief: as §1

[7] = test system: HT-1197 (Bladder Carcinoma); experiment: as above
Method in brief: as §1

HT-144 (Melanoma) = experiment: as above
Method in brief: as §1

[8] = test system: SNU-1 (Gastric Carcinoma); experiment: as above
Method in brief: as §1

[9] = test system: NTERA-2-cl-D1 (Other Solid Carcinomas); experiment: as above
Method in brief: as §1

[10] = test system: Daudi (Burkitt's Lymphoma); experiment: as above
Method in brief: as §1

[11] = test system: SCC90 (Head and Neck Carcinoma); experiment: Bliss excess, mean over the matrix (fraction); higher = more synergy
Method in brief: as §1

[12] = test system: SW1463 (Colorectal Carcinoma); experiment: as above
Method in brief: as §1

[13] = test system: GRANTA-519 (B-Cell Non-Hodgkin's Lymphoma); experiment: as above
Method in brief: as §1

[14] = test system: JURL-MK1 (Chronic Myelogenous Leukemia); experiment: as above
Method in brief: as §1

[15] = test system: OVKATE (Ovarian Carcinoma); experiment: as above
Method in brief: as §1

[16] = test system: NCI-H1944 (Lung Adenocarcinoma); experiment: as above
Method in brief: as §1

C32 (Melanoma) = experiment: as above
Method in brief: as §1

[17] = test system: NCI-H1435 (Non-Small Cell Lung Carcinoma); experiment: as above
Method in brief: as §1
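Throughout, for Bliss excess, mean over the matrix: after 72 h of two-drug dosing.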

| Compound | combination Emax [1] | combination Emax (SK-MEL-24 (Melanoma)) | combination Emax [2] | combination Emax [3] | combination Emax [4] | combination Emax [5] | combination Emax [6] | combination Emax [7] | combination Emax (HT-144 (Melanoma)) | combination Emax [8] | combination Emax [9] | combination Emax [10] | Bliss excess [11] | Bliss excess [12] | Bliss excess [13] | Bliss excess [14] | Bliss excess [15] | Bliss excess [16] | Bliss excess (C32 (Melanoma)) | Bliss excess [17] |
| --- | --- | --- | --- | --- | --- | --- | --- | --- | --- | --- | --- | --- | --- | --- | --- | --- | --- | --- | --- | --- |
| COc1cc2c(cc1OCCCCCOc1cc3c(cc1OC)C(=O)N1C=C(C)C[C@H]1C=N3)N=C[C@@H]1CC(C)=CN1C2=O [SG3199] + O=C(c1cc(Cc2n[nH]c(=O)c3ccccc23)ccc1F)N1CCN(C(=O)C2CC2)CC1 [Olaparib] (first compound max 0.001 µM, 7x7, partner max 10 µM) | 0.478 | 0.129 | 0.188 | 0.324 | 0.173 | 0.192 | 0.456 | 0.166 | 0.232 | 0.353 | 0.457 | 0.245 | -0.0461 | -0.0393 | -0.0226 | -0.0007 | -0.0653 | -0.0259 | -0.0373 | -0.0584 |
| C[C@@H](c1ccc2nccn2c1)n1nnc2ncc(-c3cnn(C)c3)nc21 [Savolitinib] + Cc1c2c(nn1C)CSCc1cc(n(C)n1)CSc1cc(c3ccccc3c1)OCCCc1c(C(=O)O)n(C)c3c-2c(Cl)ccc13 [AZD5991] (first compound max 1 µM, 7x7, partner max 1 µM) | 0.135 | 0.225 | 0.0993 | 0.141 | 0.247 | 0.184 | 0.62 | 0.195 | 0.833 | 0.454 | 0.422 | 0.196 | -0.0222 | -0.0109 | -0.0338 | -0.0037 | -0.0434 | -0.0112 | -0.0065 | -0.0263 |
| C=CCn1c(=O)c2cnc(Nc3ccc(N4CCN(C)CC4)cc3)nc2n1-c1cccc(C(C)(C)O)n1 [AZD1775] + C1CN(CCC1(C(=O)N[C@@H](CCO)C2=CC=C(C=C2)Cl)N)C3=NC=NC4=C3C=CN4 [Capivasertib] (first compound max 3 µM, partner max 3 µM) | 0.881 | 0.503 | 0.682 | 0.865 | 0.652 | 0.861 | 0.736 | 0.543 | 0.954 | 0.727 | 0.496 |  | -0.0309 | -0.0888 | -0.0163 | 0.0007 | -0.0239 | 0.0207 | -0.0772 | 0.0011 |
| Cc1nc(Nc2ncc(C(=O)Nc3c(C)cccc3Cl)s2)cc(N2CCN(CCO)CC2)n1 [Dasatinib] + CC(=O)Nc1cccc(-n2c(=O)n(C3CC3)c(=O)c3c(Nc4ccc(I)cc4F)n(C)c(=O)c(C)c32)c1 [Trametinib] (first compound max 2 µM, 7x7, partner max 1 µM) | 0.528 | 0.815 | 0.853 | 0.205 | 0.394 | 0.65 | 0.202 | 0.554 | 0.703 | 0.475 | 0.504 | 0.635 | -0.165 | -0.0659 | -0.0711 | -0.0029 | -0.0147 | 0.0343 | -0.0198 | 0.0975 |
| CN(CCO)CC[C@H](CSc1ccccc1)Nc1ccc(S(=O)(=O)NC(=O)c2ccc(N3CCC([C@@H](O)c4ccccc4-c4ccc(Cl)cc4)CC3)cc2)cc1S(=O)(=O)C(F)(F)F [AZD4320] + Cc1cc2ncnn2cc1Nc1ncc2c(n1)n(C1CCOCC1)c(=O)n2C [AZD7648] (first compound max 1 µM, 7x7, partner max 10 µM) | 0.276 | 0.252 | 0.337 | 0.829 | 0.318 | 0.464 | 0.939 | 0.261 | 0.193 | 0.463 | 0.682 | 0.22 | 0.0682 | -0.0232 | 0.0049 | -0.0287 | -0.0269 | 0.0102 | -0.0275 | 0.0137 |
| Cc1cc2ncnn2cc1Nc1ncc2c(n1)n(C1CCOCC1)c(=O)n2C [AZD7648] + O=C(c1cc(Cc2n[nH]c(=O)c3ccccc23)ccc1F)N1CCN(C(=O)C2CC2)CC1 [Olaparib] (first compound max 10 µM, 7x7, partner max 10 µM) | 0.451 | 0.211 | 0.337 | 0.251 | 0.38 | 0.246 | 0.465 | 0.216 | 0.232 | 0.446 | 0.534 | 0.446 | -0.0364 | -0.0417 | -0.0416 | -0.0253 | -0.0688 | -0.033 | -0.0375 | -0.0366 |
| CN(CCO)CC[C@H](CSc1ccccc1)Nc1ccc(S(=O)(=O)NC(=O)c2ccc(N3CCC([C@@H](O)c4ccccc4-c4ccc(Cl)cc4)CC3)cc2)cc1S(=O)(=O)C(F)(F)F [AZD4320] + Nc1ccn([C@@H]2O[C@H](CO)[C@@H](O)C2(F)F)c(=O)n1 [Gemcitabine] (first compound max 1 µM, 7x7, partner max 0.3 µM) | 1 | 0.901 | 0.702 |  | 0.884 |  |  |  |  |  | 0.663 |  |  | -0.0192 |  |  | -0.0542 |  | 0.0027 | -0.0344 |
| Cc1cc2ncnn2cc1Nc1ncc2c(n1)n(C1CCOCC1)c(=O)n2C [AZD7648] + COc1cc([C@@H]2c3cc4c(cc3[C@@H](O[C@@H]3O[C@@H]5CO[C@@H](C)O[C@H]5[C@H](O)[C@H]3O)[C@H]3COC(=O)[C@H]23)OCO4)cc(OC)c1O [Etoposide] (first compound max 10 µM, 7x7, partner max 10 µM) | 0.94 | 0.677 | 0.629 |  | 0.621 |  |  |  |  |  | 0.575 |  |  | -0.0081 |  |  | -0.0214 |  | 0.0402 | 0.0043 |
| CN(CCO)CC[C@H](CSc1ccccc1)Nc1ccc(S(=O)(=O)NC(=O)c2ccc(N3CCC([C@@H](O)c4ccccc4-c4ccc(Cl)cc4)CC3)cc2)cc1S(=O)(=O)C(F)(F)F [AZD4320] + C[C@@H](Nc1cc(F)cc(F)c1)c1cc(C(=O)N(C)C)cc2c(=O)cc(N3CCOCC3)oc12 [AZD8186] (first compound max 1 µM, 7x7, partner max 3 µM) | 0.979 | 0.772 | 0.668 | 1 | 0.351 | 0.767 | 0.96 | 0.319 | 0.455 | 0.877 | 0.976 | 0.771 | 0.0276 | -0.0706 | 0.0128 | 0.0149 | -0.0277 | -0.0426 | -0.0046 | 0.131 |
| C[C@@H](c1ccc2nccn2c1)n1nnc2ncc(-c3cnn(C)c3)nc21 [Savolitinib] + CN(CC[C@H](CSC1=CC=CC=C1)NC2=C(C=C(C=C2)S(=O)(=O)NC(=O)C3=CC=C(C=C3)N4CCC(CC4)[C@H](C5=CC=CC=C5C6=CC=C(C=C6)Cl)O)S(=O)(=O)C(F)(F)F)CCO [AZD4320] (first compound max 1 µM, 7x7, partner max 1 µM) |  |  |  | 0.898 |  | 0.369 | 0.941 | 0.255 | 0.189 | 0.417 |  | 0.188 | 0.0447 |  | -0.044 | -0.0811 |  | -0.0288 | -0.0103 |  |
| CN(CCO)CC[C@H](CSc1ccccc1)Nc1ccc(S(=O)(=O)NC(=O)c2ccc(N3CCC([C@@H](O)c4ccccc4-c4ccc(Cl)cc4)CC3)cc2)cc1S(=O)(=O)C(F)(F)F [AZD4320] + CCN(CCO)CCCOc1ccc2c(Nc3cc(CC(=O)Nc4cccc(F)c4)[nH]n3)ncnc2c1 [AZD2811] (first compound max 1 µM, 7x7, partner max 1 µM) | 0.523 | 0.226 | 0.397 | 0.993 |  | 0.584 | 0.966 | 0.241 | 0.245 | 0.541 | 0.921 | 0.351 | 0.134 | -0.0238 | 0.191 | 0.0346 | -0.0204 | 0.0026 | 0.114 | 0.004 |
| N#Cc1cnc(Nc2cc(NC[C@H]3CNCCO3)c(C(F)(F)F)cn2)cn1 [SRA737] + O=c1[nH]cc(F)c(=O)[nH]1 [5-Fluorouracil] (first compound max 10 µM, 7x7, partner max 20 µM) | 0.66 | 0.314 | 0.555 |  | 0.689 |  |  |  |  |  | 0.464 |  |  | -0.0006 |  |  | -0.0286 |  | -0.0343 | -0.0012 |
| CN(CCO)CC[C@H](CSc1ccccc1)Nc1ccc(S(=O)(=O)NC(=O)c2ccc(N3CCC([C@@H](O)c4ccccc4-c4ccc(Cl)cc4)CC3)cc2)cc1S(=O)(=O)C(F)(F)F [AZD4320] + C[C@@H]1COCCN1C2=NC(=NC(=C2)C3(CC3)[S@](=N)(=O)C)C4=C5C=CNC5=NC=C4 [AZD6738] (first compound max 1 µM, 7x7, partner max 10 µM) | 0.925 | 0.556 | 0.633 | 0.999 | 0.868 | 0.993 | 0.98 | 0.443 | 0.765 | 0.896 |  | 0.65 | 0.019 | -0.0236 | -0.0075 | -0.0278 | -0.0581 | -0.0227 | 0.0653 | 0.0366 |
| N#Cc1cnc(Nc2cc(NC[C@H]3CNCCO3)c(C(F)(F)F)cn2)cn1 [SRA737] + CCc1c2c(nc3ccc(O)cc13)-c1cc3c(c(=O)n1C2)COC(=O)[C@]3(O)CC [SN-38] (first compound max 10 µM, 7x7, partner max 0.3 µM) | 0.935 | 0.73 | 0.746 |  | 0.747 |  |  |  |  |  | 0.624 |  |  | 0.0621 |  |  | -0.045 |  | -0.0762 | -0.0243 |
